In the assay the test system is FLT3 mutant positive AML. Briefly: Clinical response to midostaurin plus chemotherapy, Princess Margaret cohort of 54 AML patients. It counts as in vivo, human.
Setting [1] is: midostaurin plus chemotherapy, 54 FLT3 mutant-positive AML patients.

On to `CO[C@@H]1[C@H](N(C)C(=O)c2ccccc2)C[C@H]2O[C@]1(C)n1c3ccccc3c3c4c(c5c6ccccc6n2c5c31)C(=O)NC4` [midostaurin, N-[(9S,I0R,I IR,I3R)-2,3,I0,I I,I2,I3-hexahydro-I0-methoxy-9-methyl-I-oxo-9,I3-epoxy-IH, 9H-diindolo[1,2,3-gh: 3′,2′,I′-Im]pyrrolo[3,4-j][I, 7]benzodiazonin-I I-yl]-N-methylbenzamide], for which, under setting [1], the “Responses to midostaurin, average” value was determined as 84 weeks and the “Responses to midostaurin, range” value is 0-513 weeks. Where the note is “of 54 AML patients treated with midostaurin plus chemotherapy”, the “patients refractory or relapsed at the time of carrying out the analysis” value was found to be 25 patients.

The record behind these values is patent publication US20240261259A1 (priority 2021, published 2024).
